A word on the inhibition: it is the share of the control response that was lost under treatment.

The results in this text go back to US20220220155A1, “VASCULAR C[…] USE THEREOF” (priority 2019, published 2022).

In assay [1] the target is T1, PLA2-treated LDL (Homo sapiens, UniProt P04114).
T1 construct: from tissue; host or cells: pooled normolipemic human plasma
Put plainly: Anti-LDL aggregation assay, turbidimetry, aggregation induced by phospholipase A2 (PLA2). The format is biochemical. As to conditions: 18 h, read-out: Inhibition of LDL aggregation, PLA2-treated LDL. As for the experimental part:
(§1) The efficacy of the novel compounds to inhibit the aggregation of LDL has been tested in two parallel turbidimetric assays differing from each other only in the enzyme used to induce LDL aggregation, namely sphingomyelinase (SMase) and phospholipase A2 (PLA2), respectively.
(§2) Human LDL (d1.019-d1.063 g/mL) were obtained from pooled normolipemic human plasma by sequential ultracentrifugation in a KBr density gradient. Briefly, VLDL were first discarded after spinning plasma at 36.000 rpm for 18 h at 4° C., VLDL-free plasma was layered with 1.063 g/mL KBr solution and centrifuged at 36,000 rpm for 18 h at 4° C. LDL were dialyzed against 0.02 M Tris, 0.15 M NaCl, 1 mM EDTA, pH 7.5 for 18 hours, and then against normal saline for 2 hours. Finally, isolated LDL were filter-sterilized. Protein concentration was determined using a colorimetric assay.
(§3) Human LDL particles (1.44 mg/mL) were incubated with 40 U/L of Bacillus cereus SMase or with 50 μg/L of type II secretory PLA2 from honey bee venom in 20 mM Tris buffer (pH 7.0) containing 150 mM NaCl, 2 mM CaCl2), and MgCl2 at 37° C. LDL incubation with SMase and PLA2 was performed at peptide concentration of 10 μM (ratio compound/ApoB-100: 4.7/1) for 18 hours. LDL lipolysis was stopped by addition of EDTA (final concentration 10 mM).
(§4) The efficiency of each novel compound to inhibit LDL aggregation induced by SMase and PLA2 was estimated by turbidimetry measuring the absorbance at a wavelength of 405 nm. Thus, the inhibitory activity was calculated according to Equation I.
(§5) a corresponds to the absorbance value in the presence of nLDL particles, LDL aggregating enzyme (i.e., SMase or PLA2) and test compound;
(§6) b corresponds to the absorbance value in the presence of only nLDL particles;
(§7) c corresponds to the absorbance value in the presence of nLDL particles and LDL aggregating enzyme (i.e., SMase or PLA2);

Assay [2] has as its system human coronary vascular smooth muscle cells (hcVSMC). Put plainly: Inhibition of intracellular cholesterol accumulation induced by SMase (CE/FC ratio). The format is cell-based. As to conditions: hcVSMC exposed 2 hours to SMase-LDL treated overnight with peptide 10 μM; CE and FC by thin layer chromatography and densitometry, Equation II. As to the method:
Thus, the inhibitory effect of the novel compounds on the intracellular cholesterol accumulation has been analysed in terms of decrease in the ratio of intracellular CE and free cholesterol FC content of hcVSMC exposed to LDL and SMase-LDL.
All cells used were from a unique batch in order to prevent variability from cell origin. Cell quiescence was induced by maintaining the cell culture for 24 hours in a medium. Serum-deprived cells between passages 4 and 8 were used for experiments. VSMCs at these passages appeared as a relatively homogeneous population, showing a hill-and-valley confluence pattern. Cell monolayers were grown in vascular cell basal medium supplemented with vascular smooth muscle growth kit components. Quiescent cells were 2-hours exposed to LDL treated with SMase (in absence or presence of peptides) overnight at a concentration of 10 μM previously checked its aggregation by a turbidimetry test. Cells were then either collected for lipid extraction or processed for confocal microscopy analysis.
Following the lipoprotein incubation period, hcVSMC were exhaustively washed (twice with PBS, twice with PBS supplemented with 1% BSA, and once with PBS supplemented with both 1% BSA and 100 U/mL heparin), before they were harvested into 1 mL of 0.15 M NaOH. Lipids were extracted using the Bligh and Dyer method. The lipid extract was redissolved in dichloromethane, applied to silica gel plates, and separated by thin layer chromatography. A mixture of cholesterol and cholesterol palmitate, were also run as standards. Heptane or a solvent combination of heptane/diethylether/acetic acid (74:21:4, v/v/v) were used as chromatographic mobile phase. After lipid separation, the plates were dried and stained as previously reported. Finally, the spots corresponding to cholesteryl ester (CE) and free cholesterol (FC) were quantitated by densitometry.
The efficacy of each novel compound to decrease the ratio of intracellular cholesteryl esters (CE) and free cholesterol (FC) content of hcVSMC exposed to LDL and SMase-LDL was calculated according to Equation II.
a corresponds to the CE/FC ratio in hcVSMC exposed to SMase-LDL and in the presence of the test compound.
b corresponds to the CE/FC ratio in hcVSMC exposed to nLDL in the absence of the test compound.
c corresponds to the CE/FC ratio in hcVSMC exposed to SMase-LDL in the absence of the test compound.

Assay [3] addresses T2, SMase-treated LDL (Homo sapiens, UniProt P04114).
T2 construct: from tissue; host or cells: pooled normolipemic human plasma
Briefly: Anti-LDL aggregation assay, turbidimetry, aggregation induced by sphingomyelinase (SMase). The format is biochemical. As to conditions: peptide 10 μM (compound/ApoB-100 4.7/1), human LDL 1.44 mg/mL, 40 U/L Bacillus cereus SMase, 18 hours, 37° C., absorbance at 405 nm, Equation I. As to the method: as §1, §2, §3, §4, §5, §6, §7

Where a SMILES comes first, the peptide text is derived from it. [ ]: non-standard residue; d: D form. ξ: configuration not given here. ξD = NC(CC(=O)O)C(=O)O

T1 sequence (P04114 28-4563): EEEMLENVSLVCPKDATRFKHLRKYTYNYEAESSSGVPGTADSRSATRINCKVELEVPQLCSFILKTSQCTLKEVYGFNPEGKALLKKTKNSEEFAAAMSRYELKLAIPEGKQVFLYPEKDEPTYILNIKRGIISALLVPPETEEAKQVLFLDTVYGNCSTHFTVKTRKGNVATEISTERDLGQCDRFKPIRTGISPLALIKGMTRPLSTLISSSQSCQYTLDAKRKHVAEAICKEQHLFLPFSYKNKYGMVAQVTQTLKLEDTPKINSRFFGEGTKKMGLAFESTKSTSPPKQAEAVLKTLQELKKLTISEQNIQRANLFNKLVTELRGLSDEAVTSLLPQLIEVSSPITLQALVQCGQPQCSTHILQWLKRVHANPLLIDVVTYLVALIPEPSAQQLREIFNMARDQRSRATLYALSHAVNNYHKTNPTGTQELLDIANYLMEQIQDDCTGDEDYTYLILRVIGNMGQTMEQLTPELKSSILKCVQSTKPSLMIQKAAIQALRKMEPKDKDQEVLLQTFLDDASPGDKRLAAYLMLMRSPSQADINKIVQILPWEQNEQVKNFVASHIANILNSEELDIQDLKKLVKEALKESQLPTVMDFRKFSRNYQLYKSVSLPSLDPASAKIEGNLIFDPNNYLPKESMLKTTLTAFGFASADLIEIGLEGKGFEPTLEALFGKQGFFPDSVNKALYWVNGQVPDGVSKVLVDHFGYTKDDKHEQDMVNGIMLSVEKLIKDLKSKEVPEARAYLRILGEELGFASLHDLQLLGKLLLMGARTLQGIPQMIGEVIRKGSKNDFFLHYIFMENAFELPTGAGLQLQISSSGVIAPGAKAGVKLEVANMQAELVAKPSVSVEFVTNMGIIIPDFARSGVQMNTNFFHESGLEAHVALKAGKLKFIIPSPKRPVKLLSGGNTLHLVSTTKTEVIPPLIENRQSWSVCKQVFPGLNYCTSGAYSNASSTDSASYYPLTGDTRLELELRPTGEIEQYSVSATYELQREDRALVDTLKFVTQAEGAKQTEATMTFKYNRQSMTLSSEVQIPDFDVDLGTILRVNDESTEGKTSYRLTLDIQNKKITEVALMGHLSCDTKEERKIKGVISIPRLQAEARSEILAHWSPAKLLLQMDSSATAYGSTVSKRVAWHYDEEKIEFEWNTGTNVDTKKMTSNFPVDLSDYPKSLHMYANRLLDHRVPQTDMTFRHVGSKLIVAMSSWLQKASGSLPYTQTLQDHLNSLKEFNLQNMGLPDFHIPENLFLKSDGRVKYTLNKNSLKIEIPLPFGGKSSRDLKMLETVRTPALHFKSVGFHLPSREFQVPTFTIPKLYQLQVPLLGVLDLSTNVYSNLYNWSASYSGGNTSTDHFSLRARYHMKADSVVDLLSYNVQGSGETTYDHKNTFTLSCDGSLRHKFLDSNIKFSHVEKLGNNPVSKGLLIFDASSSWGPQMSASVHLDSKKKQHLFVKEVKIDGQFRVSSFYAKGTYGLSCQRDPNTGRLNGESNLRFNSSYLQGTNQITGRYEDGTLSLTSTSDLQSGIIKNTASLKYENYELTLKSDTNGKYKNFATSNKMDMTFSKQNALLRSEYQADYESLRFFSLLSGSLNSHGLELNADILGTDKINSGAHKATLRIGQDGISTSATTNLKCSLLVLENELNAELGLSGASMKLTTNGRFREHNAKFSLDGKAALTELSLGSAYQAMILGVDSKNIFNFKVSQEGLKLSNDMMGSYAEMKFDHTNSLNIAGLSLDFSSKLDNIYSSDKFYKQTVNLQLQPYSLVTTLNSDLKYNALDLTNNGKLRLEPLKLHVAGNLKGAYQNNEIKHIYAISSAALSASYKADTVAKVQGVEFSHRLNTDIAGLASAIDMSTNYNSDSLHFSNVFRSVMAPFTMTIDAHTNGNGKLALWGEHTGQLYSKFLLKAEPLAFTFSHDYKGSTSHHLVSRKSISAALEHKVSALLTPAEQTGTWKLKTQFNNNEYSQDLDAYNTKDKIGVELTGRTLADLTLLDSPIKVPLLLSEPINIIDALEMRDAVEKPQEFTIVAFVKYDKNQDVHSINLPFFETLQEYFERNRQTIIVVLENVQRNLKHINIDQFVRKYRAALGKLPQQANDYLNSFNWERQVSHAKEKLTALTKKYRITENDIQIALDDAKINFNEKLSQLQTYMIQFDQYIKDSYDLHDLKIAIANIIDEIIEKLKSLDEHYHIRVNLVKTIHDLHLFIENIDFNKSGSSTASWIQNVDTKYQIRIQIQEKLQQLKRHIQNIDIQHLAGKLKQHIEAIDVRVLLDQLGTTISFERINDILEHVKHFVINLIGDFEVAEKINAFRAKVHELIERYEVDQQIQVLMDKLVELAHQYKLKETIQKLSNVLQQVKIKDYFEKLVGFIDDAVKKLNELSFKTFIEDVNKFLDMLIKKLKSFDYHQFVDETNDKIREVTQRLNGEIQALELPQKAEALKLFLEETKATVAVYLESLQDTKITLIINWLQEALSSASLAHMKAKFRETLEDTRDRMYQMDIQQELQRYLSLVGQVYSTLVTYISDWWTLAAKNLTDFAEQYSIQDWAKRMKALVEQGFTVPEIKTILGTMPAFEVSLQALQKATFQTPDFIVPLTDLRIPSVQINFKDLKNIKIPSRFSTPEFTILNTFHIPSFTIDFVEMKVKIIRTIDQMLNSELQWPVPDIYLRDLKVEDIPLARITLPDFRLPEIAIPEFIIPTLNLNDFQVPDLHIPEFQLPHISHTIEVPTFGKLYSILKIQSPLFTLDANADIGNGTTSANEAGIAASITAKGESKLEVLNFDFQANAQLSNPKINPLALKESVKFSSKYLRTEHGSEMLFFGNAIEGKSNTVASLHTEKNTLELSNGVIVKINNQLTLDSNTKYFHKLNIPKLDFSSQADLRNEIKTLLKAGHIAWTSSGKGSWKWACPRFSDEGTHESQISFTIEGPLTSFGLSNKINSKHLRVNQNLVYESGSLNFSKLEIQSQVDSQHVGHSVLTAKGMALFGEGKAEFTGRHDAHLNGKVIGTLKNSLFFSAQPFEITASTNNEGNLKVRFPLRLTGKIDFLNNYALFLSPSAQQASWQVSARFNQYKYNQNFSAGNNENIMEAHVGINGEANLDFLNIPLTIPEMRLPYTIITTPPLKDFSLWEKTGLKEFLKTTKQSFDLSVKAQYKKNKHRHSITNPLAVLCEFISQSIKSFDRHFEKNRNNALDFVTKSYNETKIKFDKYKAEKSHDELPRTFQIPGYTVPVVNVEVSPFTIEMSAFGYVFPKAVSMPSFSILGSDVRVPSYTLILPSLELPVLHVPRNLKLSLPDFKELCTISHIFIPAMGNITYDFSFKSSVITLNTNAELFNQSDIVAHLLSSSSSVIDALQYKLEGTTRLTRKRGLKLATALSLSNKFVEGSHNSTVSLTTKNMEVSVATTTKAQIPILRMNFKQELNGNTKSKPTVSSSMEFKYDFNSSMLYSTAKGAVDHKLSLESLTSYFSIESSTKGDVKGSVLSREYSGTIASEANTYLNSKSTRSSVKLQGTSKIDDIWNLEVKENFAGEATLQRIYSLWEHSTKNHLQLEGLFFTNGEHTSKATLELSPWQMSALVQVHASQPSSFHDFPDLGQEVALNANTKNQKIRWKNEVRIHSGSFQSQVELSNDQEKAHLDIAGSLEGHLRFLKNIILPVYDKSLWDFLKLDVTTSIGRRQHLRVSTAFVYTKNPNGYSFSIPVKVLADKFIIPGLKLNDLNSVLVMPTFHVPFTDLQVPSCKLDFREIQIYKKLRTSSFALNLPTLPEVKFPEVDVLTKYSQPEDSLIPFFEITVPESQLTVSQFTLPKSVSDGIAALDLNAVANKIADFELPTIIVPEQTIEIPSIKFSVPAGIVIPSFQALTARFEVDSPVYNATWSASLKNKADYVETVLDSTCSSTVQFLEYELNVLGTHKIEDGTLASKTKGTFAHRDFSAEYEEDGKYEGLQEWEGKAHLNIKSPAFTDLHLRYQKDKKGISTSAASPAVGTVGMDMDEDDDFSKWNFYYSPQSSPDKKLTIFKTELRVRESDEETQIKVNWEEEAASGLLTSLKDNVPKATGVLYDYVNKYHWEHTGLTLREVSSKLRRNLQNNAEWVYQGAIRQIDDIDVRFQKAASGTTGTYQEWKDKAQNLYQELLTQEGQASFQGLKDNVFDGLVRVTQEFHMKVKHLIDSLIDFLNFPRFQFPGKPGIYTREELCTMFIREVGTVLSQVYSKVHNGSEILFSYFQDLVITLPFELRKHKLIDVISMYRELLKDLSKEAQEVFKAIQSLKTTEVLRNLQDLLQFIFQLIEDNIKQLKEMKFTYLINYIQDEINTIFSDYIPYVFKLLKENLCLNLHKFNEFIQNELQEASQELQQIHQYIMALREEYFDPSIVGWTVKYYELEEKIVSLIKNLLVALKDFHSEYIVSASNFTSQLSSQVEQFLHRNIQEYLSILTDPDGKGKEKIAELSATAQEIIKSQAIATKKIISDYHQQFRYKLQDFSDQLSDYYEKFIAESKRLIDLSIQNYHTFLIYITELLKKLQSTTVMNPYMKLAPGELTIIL
T2 sequence (P04114 28-4563): as above

Consider `CC(=O)N[C@H](CC(=O)O)C(=O)N[C@H](CO)C(=O)N[C@H](CCC(=O)O)C(=O)N[C@H](CC(=O)O)C(=O)N[C@H](CC(N)=O)C(=O)N[C@H](CO)C(=O)N[C@H](CC(=O)O)C(=O)N[C@H](CCC(=O)O)C(=O)N[C@H](CCC(=O)O)C(=O)N[C@H](CC(N)=O)C(N)=O` [Example 12, Ac-D-Asp-D-Ser-D-Glu-D-Asp-D-Asn-D-Ser-D-Asp-D-Glu-D-Glu-D-Asn-NH2] (Ac-[dD][dS][dE][dD][dN][dS][dD][dE][dE][dN]-NH2), for which the inhibition at 10 µM amounted to 94.3% in assay [1] and 93.3% in assay [3]. In addition, the “CE/FC ratio decrease (%)” value in assay [2] was found to be 76.5%.

Regarding `CC(=O)N[C@H](CC(=O)O)C(=O)N[C@H](CC(N)=O)C(=O)N[C@H](CC(=O)O)C(=O)N[C@H](CO)C(=O)N[C@H](CCC(=O)O)C(=O)NC(CC(=O)O)C(=O)N[C@H](CC(N)=O)C(=O)N[C@H](CO)C(=O)N[C@H](CC(=O)O)C(=O)N[C@H](CCC(=O)O)C(=O)N[C@H](CCC(=O)O)C(=O)N[C@H](C)C(N)=O` (stereo partly drawn) [Example 13, Ac-D-Asp-D-Asn-D-Asp-D-Ser-D-Glu-D-Asp-D-Asn-D-Ser-D-Asp-D-Glu-D-Glu-D-Ala-NH2] (Ac-[dD][dN][dD][dS][dE][ξD][dN][dS][dD][dE][dE][dA]-NH2), the results for the inhibition at 10 µM in assay [1] and in assay [3] were 95.9% and 95.5%, respectively. The “CE/FC ratio decrease (%)” value in assay [2] amounted to 80.4%.

For `CC(=O)N[C@H](CC(N)=O)C(=O)N[C@H](CC(=O)O)C(=O)N[C@H](CO)C(=O)N[C@H](CCC(=O)O)C(=O)N[C@H](CC(=O)O)C(=O)N[C@H](CC(N)=O)C(=O)N[C@H](CO)C(=O)NC(CC(=O)O)C(=O)N[C@H](CCC(=O)O)C(=O)N[C@H](CCC(=O)O)C(=O)N[C@H](C)C(N)=O` (stereo partly drawn) [Example 14, Ac-D-Asn-D-Asp-D-Ser-D-Glu-D-Asp-D-Asn-D-Ser-D-Asp-D-Glu-D-Glu-D-Ala-NH2] (Ac-[dN][dD][dS][dE][dD][dN][dS][ξD][dE][dE][dA]-NH2), the inhibition at 10 µM in assay [1] is 74%; in assay [3], 68.3%. For the same molecule, the “CE/FC ratio decrease (%)” value in assay [2] worked out at 62.7%.

As for `CC(=O)N[C@H](CC(=O)O)C(=O)N[C@H](CO)C(=O)N[C@H](CCC(=O)O)C(=O)N[C@H](CC(=O)O)C(=O)N[C@H](CC(N)=O)C(=O)N[C@H](CO)C(=O)N[C@H](CC(=O)O)C(=O)N[C@H](CCC(=O)O)C(=O)N[C@H](CCC(=O)O)C(=O)N[C@H](C)C(N)=O` [Example 15, Ac-D-Asp-D-Ser-D-Glu-D-Asp-D-Asn-D-Ser-D-Asp-D-Glu-D-Glu-D-Ala-NH2] (Ac-[dD][dS][dE][dD][dN][dS][dD][dE][dE][dA]-NH2), the inhibition at 10 µM was 95.9% in assay [1] and 96% in assay [3]. For the same molecule, the “CE/FC ratio decrease (%)” value in assay [2] came out at 90.2%.

On to `CC(=O)N[C@H](CC(=O)O)C(=O)N[C@H](CO)C(=O)N[C@H](CCC(=O)O)C(=O)N[C@H](CC(=O)O)C(=O)N[C@H](CC(N)=O)C(=O)N[C@H](C)C(=O)N[C@H](CC(=O)O)C(=O)N[C@H](CCC(=O)O)C(=O)N[C@H](CCC(=O)O)C(=O)N[C@H](C)C(N)=O` [Example 16, Ac-D-Asp-D-Ser-D-Glu-D-Asp-D-Asn-D-Ala-D-Asp-D-Glu-D-Glu-D-Ala-NH2] (Ac-[dD][dS][dE][dD][dN][dA][dD][dE][dE][dA]-NH2), for which the figures for the inhibition at 10 µM in assay [1] and in assay [3] were 61.9% and 94%, respectively. The “CE/FC ratio decrease (%)” value in assay [2] turned out to be 69.5%.

Regarding `CC(=O)N[C@H](CC(=O)O)C(=O)N[C@H](C)C(=O)N[C@H](CCC(=O)O)C(=O)N[C@H](CC(=O)O)C(=O)N[C@H](CC(N)=O)C(=O)N[C@H](C)C(=O)N[C@H](CC(=O)O)C(=O)N[C@H](CCC(=O)O)C(=O)N[C@H](CCC(=O)O)C(=O)N[C@H](C)C(N)=O` [Example 17, Ac-D-Asp-D-Ala-D-Glu-D-Asp-D-Asn-D-Ala-D-Asp-D-Glu-D-Glu-D-Ala-NH2] (Ac-[dD][dA][dE][dD][dN][dA][dD][dE][dE][dA]-NH2), the inhibition at 10 µM came to 66.1% in assay [1] and 95.2% in assay [3]. Also, the “CE/FC ratio decrease (%)” value in assay [2] was determined as 67.4%.

On to `CC(=O)N[C@H](CC(=O)O)C(=O)N[C@H](CO)C(=O)N[C@H](CCC(=O)O)C(=O)N[C@H](CC(=O)O)C(=O)N[C@H](CC(N)=O)C(=O)N[C@H](CCCCN)C(=O)N[C@H](CC(=O)O)C(=O)N[C@H](CCC(=O)O)C(=O)N[C@H](CCC(=O)O)C(=O)N[C@H](CC(N)=O)C(N)=O` [Example 18, Ac-D-Asp-D-Ser-D-Glu-D-Asp-D-Asn-D-Lys-D-Asp-D-Glu-D-Glu-D-Asn-NH2] (Ac-[dD][dS][dE][dD][dN][dK][dD][dE][dE][dN]-NH2), for which the inhibition at 10 µM in assay [1] amounted to 55.1%; in assay [3] it was 85.1%. In addition, the “CE/FC ratio decrease (%)” value in assay [2] amounted to 47.6%.

As for `CC(=O)N[C@H](CC(=O)O)C(=O)N[C@H](CO)C(=O)N[C@H](CCC(=O)O)C(=O)N[C@H](CC(=O)O)C(=O)N[C@H](CC(N)=O)C(=O)N[C@H](CCCCN)C(=O)N[C@H](CC(=O)O)C(=O)N[C@H](CCC(=O)O)C(=O)N[C@H](CCC(=O)O)C(=O)N[C@H](C)C(N)=O` [Example 19, Ac-D-Asp-D-Ser-D-Glu-D-Asp-D-Asn-D-Lys-D-Asp-D-Glu-D-Glu-D-Ala-NH2] (Ac-[dD][dS][dE][dD][dN][dK][dD][dE][dE][dA]-NH2), the figures for the inhibition at 10 µM in assay [1] and in assay [3] were 46.2% and 87.5%, respectively. Also, the “CE/FC ratio decrease (%)” value in assay [2] is given as 17.7%.
